Source: US7816400B2 (The University of Hong Kong, priority 2007, dated 2010)
Entries after “also recorded” stand apart in the source; their conditions may differ.

Experiments:
[1] = test system: Kunmin mice; experiment: Acute toxicity in mice; type: in vivo; details: oral, two-week observation
Excerpt: The animals were observed closely with a two-week duration for death number and activity.

[2] = Water solubility (statement); type: physicochemical; details: for injection application
[3] = biological target: hERG channels (Homo sapiens, UniProt Q12809); experiment: cell-based
[4] = biological target: IKs channels (hKCNQ1/hKCNE1) (Homo sapiens, UniProt P51787); experiment: IKs in HEK 293 cells stably expressing hKCNQ1/hKCNE1; type: cell-based; details: for inhibition of IKs amplitude, in words: 30 μM
Protocol: (§1) The established HEK 293 cell lines stably expressing the hERG channel gene, Kv1.5 (Tang et al., 2007), or recombinant human cardiac KCNQ1/KCNE1 channel current (IKs) (Dong et al., 2006) was maintained separately in Dulbecco's modified eagle medium (Invitrogen) supplemented with 10% fetal bovine serum and containing 400 μg/ml G418 (for hERG or Kv1.5 channels) or 100 μg/ml hygromycin (for IKs).
(§2) The whole-cell patch-clamp technique was used for electrophysiological recording. Borosilicate glass electrodes (1.2-mm OD) were pulled with a Brown-Flamming puller (model P-97, Sutter Instrument Co, Novato, Calif., USA) and had tip resistances of 2-3 MΩ when filled with pipette solution. Membrane currents were recorded in voltage-clamp mode using an EPC-9 amplifier and Pulse software (HEKA, Lambrecht, Germany). A 3-M KCl-agar salt bridge was used as reference electrode. The tip potentials were compensated before the pipette touched the cell. After a giga-ohm seal was obtained, the cell membrane was ruptured by gentle suction to establish the whole-cell configuration. The cell membrane capacitance (pF) was directly measured using the lock-in module of the Pulse software, and used for normalizing the current in individual cells. The series resistance (Rs) was 3-5 MΩ and was compensated by 50-70% to minimize voltage errors. Perforated patch configuration was used for recording action potential in human atrial cells and IKs in HEK 293 cells as described previously (Li et al., 2002b; Dong et al., 2006). Current signals were low-pass filtered at 5 kHz and stored on the hard disk of an IBM compatible computer.

[5] = test system: ICa.L; experiment: ICa.L in guinea pig ventricular myocytes; type: cell-based; details: 30 and 100 μM
Protocol: (§3) Guinea pigs of either gender (250-300 g) were sacrificed by cervical dislocation after anesthetization with pentobarbital (40 mg kg, i.p.). The procedure related to the use of animals in this invention was approved by the Animal Care and Use Committee for Teaching and Research of University of Hong Kong in accordance with the Guide for the Care and Use of Laboratory Animals (Institute of Laboratory Animal Resources, Commission on Life Sciences, National Research Council, 1996). Left atrial and ventricular myocytes from guinea pig hearts were enzymatically dissociated by the procedure described previously (Li et al., 2002a) and the isolated myocytes were kept in the K^+ storage medium.
(§4) The Ca^2+-free cardioplegic solution for specimen transport contained (in mM) 50 KH2PO4, 8 MgSO4, 5 adenosine, 10 HEPES, 140 glucose, 100 mannitol, 10 taurine, pH was adjusted to 7.3 with KOH. Tyrode solution contained (in mM) 140 NaCl, 5.4 KCl, 1 MgCl2, 1 CaCl2, 0.33 NaH2PO4, 10 HEPES, 10 glucose, pH was adjusted to 7.4 with NaOH. […] INa was recorded under conditions of K^+-free and a symmetrical Na^+ (5 mM) in pipette and superfusion solutions as described previously (Li at al., 2002a).
(§5) The whole-cell patch-clamp technique was used for electrophysiological recording. […] Membrane currents were recorded in voltage-clamp mode using an EPC-9 amplifier and Pulse software (HEKA, Lambrecht, Germany). […]

[6] = test system: INa; experiment: INa in guinea pig ventricular myocytes; type: cell-based; details: 30 and 100 μM
Protocol: as §3, §4, §5

[7] = test system: anesthetized dogs; experiment: Experimental vagotonic AF in anesthetized dogs; type: in vivo, dog; details: for summarized anti-AF efficacy: vehicle 0%; for animals in which sustained AF was not observed: vehicle: sustained AF in 100%; for prevention of AF induction, in words: 5 and 10 mg/kg intraduodenal, P<0.05 vs vehicle
Protocol: Sustained vagotonic AF was generated in anesthetized dogs by introducing two MAP catheters respectively into the right atrium and the left ventricle along with stimulation of the divided bilateral vagal nerves in the neck. […] Ventricular pacing was performed with 2 ms voltage pulses (2.5 Hz, 150% diastolic threshold) when vagal nerves were continuously stimulated. AF was generated by the BCL 100-ms S1 followed by S2, lasting for 10 min. […] The sustained AF could be repeatedly generated and terminated by stopping vagal stimulation. AF incidence and AF duration were recorded before and at different time points (0.5, 1, 1.5, 2, 3, and 4h) after intraduodenal administration of drugs.
AF was induced by S1-S2 stimulation at 100 ms BCL with bilateral vagal stimulation (see Methods & FIG. 12) at certain time points during the 0.5 to 4 h period following intraduodenal administration. AF lasted for 10 min and terminated once vagal stimulation was stopped. No AF occurrence or shortened AF duration during the continuous vagal stimulation were considered to represent prevention of AF.

[8] = test system: IK.ACh; experiment: Carbachol-evoked IK.ACh in guinea pig atrial myocytes; type: cell-based; details: for IK.ACh at +50 mV / IK.ACh at −100 mV: carbachol 5 μM; for IK.ACh at +50 mV: control 147.2; for IK.ACh at −100 mV: control −338.3±61.5; for block of carbachol-evoked IK.ACh, in words: 3 and 10 μM
Protocol: as §3, §2

[9] = biological target: T1, Kv1.5 (Homo sapiens, UniProt P22460); experiment: Kv1.5 channel block in stably expressing HEK 293 cells; type: cell-based; details: HEK 293 cells stably expressing Kv1.5, Table 3; read-out: Kv1.5 (IC50)
T1 construct: expressed in transfected cells
T1 sequence (P22460 whole entry): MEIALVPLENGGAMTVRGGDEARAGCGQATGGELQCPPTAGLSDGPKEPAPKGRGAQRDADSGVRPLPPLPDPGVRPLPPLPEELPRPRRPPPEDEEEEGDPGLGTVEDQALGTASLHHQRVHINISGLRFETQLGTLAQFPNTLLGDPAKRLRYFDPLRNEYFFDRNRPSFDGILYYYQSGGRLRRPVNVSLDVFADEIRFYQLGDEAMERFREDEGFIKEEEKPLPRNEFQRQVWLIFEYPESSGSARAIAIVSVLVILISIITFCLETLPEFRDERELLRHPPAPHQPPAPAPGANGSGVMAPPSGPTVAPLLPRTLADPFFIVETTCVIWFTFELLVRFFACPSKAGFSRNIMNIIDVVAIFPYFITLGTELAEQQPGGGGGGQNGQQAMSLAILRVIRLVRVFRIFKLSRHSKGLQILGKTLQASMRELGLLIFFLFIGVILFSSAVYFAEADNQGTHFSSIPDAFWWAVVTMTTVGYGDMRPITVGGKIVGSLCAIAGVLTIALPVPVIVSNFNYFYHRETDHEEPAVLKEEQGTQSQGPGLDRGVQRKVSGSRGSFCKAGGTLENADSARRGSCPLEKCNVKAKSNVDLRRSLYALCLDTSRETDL
Protocol: as §1, §2
Other derivatives/analogs studied have no effect or a week inhibitory effect on Kv1.5.

[10] = test system: anesthetized dogs; experiment: In vivo electrophysiology (atrial ERP, QTc) in anesthetized dogs; set-up: species or system dog; details: 5 mg/kg intraduodenal, BCL 200 ms, pre-treatment (baseline)
Protocol: Adult mongrel dogs (12-15 kg) were anesthetized with pentobarbital (30 mg/kg i.v.), supplemented during the experiment when needed. The animal was intubated and ventilated with room air. Body temperature was maintained at 37-38° C. with a temperature control system. The left femoral vein was cannulated for maintenance of anesthesia and introducing the mono-phasic action potential (MAP) recording- and pacing-catheters (Boston Scientific Ltd) to the right atrium. The vagus nerves were isolated and divided in the neck. […] A left thoracotomy was performed in the fourth intercostal space, and the pericardium was incised to provide access to the left atrium for introducing the MAP catheter. The catheters were used for recording MAPs of right and left atria, respectively, and for measurement of effective refractory period (ERP). […] A ligation was made at the pylorus with a thick cotton thread to prevent the possible back flow of the duodenum content.
Following a 30-min equilibration period and measurement of atrial excitation threshold with 2-ms duration of stimuli, atrial ERP was determined using a train of 8 basic stimuli (S1, twice-diastolic threshold) followed by an identical premature stimulus (S2). The basic cycle lengths (BCL) of 200, 250 and 300 ms were applied in both right and left atria. S2 was initially delivered late in diastole in 5-ms decrements until a response was not elicited by the S2 indicated on the MAP recording. The ERP was defined as the longest S1-S2 interval failing a propagated response, and the procedure was repeated for three times for each measurement. MAP, ECG and blood pressure signals were continuously monitored and stored on an IBM compatible PC computer using a multiple channels data acquisition system (RM-6280C, Chengdu Instrument Ltd, Chendu, China).
The ERP measurement was then repeated every hour post drug administration for 6 hours. Excitation threshold of both right and left atria was verified before ERP each measurement. • 1.7.2.
The ERPs were determined in anesthetized dogs using the BCLs of 300, 250, and 200 ms by introducing S1-S2 via a programmed cardiac stimulator (FIG. 10A).

Chain of hERG channels (Q12809 whole entry): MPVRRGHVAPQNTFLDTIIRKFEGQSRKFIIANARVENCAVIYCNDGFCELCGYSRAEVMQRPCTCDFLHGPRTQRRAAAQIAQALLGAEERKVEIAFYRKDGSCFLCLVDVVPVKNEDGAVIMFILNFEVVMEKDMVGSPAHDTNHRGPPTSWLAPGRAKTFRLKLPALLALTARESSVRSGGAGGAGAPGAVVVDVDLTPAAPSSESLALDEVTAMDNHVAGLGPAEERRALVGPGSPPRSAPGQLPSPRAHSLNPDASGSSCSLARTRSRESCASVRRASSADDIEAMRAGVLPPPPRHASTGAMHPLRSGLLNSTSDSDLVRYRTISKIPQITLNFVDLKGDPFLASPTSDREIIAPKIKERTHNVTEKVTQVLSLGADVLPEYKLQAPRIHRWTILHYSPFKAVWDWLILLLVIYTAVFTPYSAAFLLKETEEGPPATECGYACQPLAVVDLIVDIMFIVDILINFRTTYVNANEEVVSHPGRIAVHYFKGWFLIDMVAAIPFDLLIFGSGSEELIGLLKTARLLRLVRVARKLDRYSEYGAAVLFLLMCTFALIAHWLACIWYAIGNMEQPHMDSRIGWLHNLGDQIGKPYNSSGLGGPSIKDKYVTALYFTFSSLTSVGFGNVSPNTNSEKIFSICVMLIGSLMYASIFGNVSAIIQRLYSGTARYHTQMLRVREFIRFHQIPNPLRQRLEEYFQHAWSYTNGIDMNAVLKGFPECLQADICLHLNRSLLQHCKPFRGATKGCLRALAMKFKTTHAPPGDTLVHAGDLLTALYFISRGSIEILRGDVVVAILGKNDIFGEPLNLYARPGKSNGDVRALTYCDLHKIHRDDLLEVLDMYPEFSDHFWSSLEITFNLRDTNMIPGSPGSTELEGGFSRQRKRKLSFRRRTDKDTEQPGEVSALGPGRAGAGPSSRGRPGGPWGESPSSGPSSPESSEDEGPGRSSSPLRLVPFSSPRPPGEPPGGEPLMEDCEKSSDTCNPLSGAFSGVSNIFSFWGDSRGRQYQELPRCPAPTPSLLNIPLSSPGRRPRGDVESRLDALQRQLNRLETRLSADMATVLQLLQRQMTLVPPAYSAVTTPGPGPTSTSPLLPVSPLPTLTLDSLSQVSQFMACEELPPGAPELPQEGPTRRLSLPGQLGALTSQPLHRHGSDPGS

In the case of `COc1ccc(-c2cc(=O)c3c(O)cc(O)cc3o2)cc1` [Acacetin, 5,7-dihydroxy-4′-methoxyflavone], the “abnormal activity compared to vehicle-control animals” value ([1]; 0.3 g/kg three times) is reported as “no abnormal activity”, the animal death ([1]; 900 mg/kg (0.3 g/kg three times at intervals of 1.5 h), 900 mg/kg) is reported as “no animal death” and the “water solubility, in words” value [2] is reported as “not water soluble”. For the same molecule, the IC50 [3] was 32.4 µM, the “inhibition of IKs amplitude, in words” value [4] was “significantly inhibited” and the “inhibition of IKs amplitude, in words” value ([4]; listed as acacetin) was “inhibited”. For the same molecule, the IC50 ([4]; HEK 293 cells, IKs.step, +40 mV, read-out: IC50 for inhibiting IKs) was 81.4 µM, the “effect on ICa.L, in words” value [5] was “no effect; also recorded: no inhibition” and the “effect on ICa.L, in words” value ([5]; listed as acacetin) was “no effects”. For the same molecule, the “effect on INa, in words” value [6] was “no effect; also recorded: no inhibition”, the “effect on INa, in words” value ([6]; listed as acacetin) was “no effects” and the “summarized anti-AF efficacy” value ([7]; 2.5 mg/kg intraduodenal) was 50%. For the same molecule, the “animals in which sustained AF was not observed” value ([7]; 2.5 mg/kg intraduodenal) was 50%, the “summarized anti-AF efficacy” value ([7]; 5 mg/kg intraduodenal) was 85.7% and the “animals in which sustained AF was not observed” value ([7]; 5 mg/kg intraduodenal) was 57%. The “summarized anti-AF efficacy” value ([7]; 10 mg/kg intraduodenal) was 85.7%, the “animals in which sustained AF was not observed” value ([7]; 10 mg/kg intraduodenal) was 57% and the “prevention of AF induction, in words” value [7] was “significantly prevented AF”. For the same molecule, the “prevention of AF induction, in words” value ([7]; listed as acacetin) was “significantly prevented AF induction”, the “incidence of AF, in words” value ([7]; acacetin 2.5, 5, 10 mg/kg, sotalol 5 mg/kg, 1.5-2.5 h after intraduodenal administration) was “reduced the incidence of AF” and the “IK.ACh at +50 mV” value ([8]; 3 μM, n=5) was 87.8±36.1 pA. For the same molecule, the “IK.ACh at −100 mV” value ([8]; 3 μM, n=5) was −180.2±36.7 pA, the “IK.ACh at +50 mV” value ([8]; 10 μM, n=6) was 55.7±26.2 pA and the “IK.ACh at −100 mV” value ([8]; 10 μM, n=6) was −75.6±21.1 pA. For the same molecule, the “block of carbachol-evoked IK.ACh, in words” value [8] was “substantially blocked”, the “block of carbachol-evoked IK.ACh, in words” value ([8]; listed as acacetin) was “substantially inhibits” and the IC50 [9] was 3.4 µM. For the same molecule, the “right atrial ERP (ms), BCL 200 ms” value [10] was 87.2 ± 7.9 ms.
